Measured values published in the METLIN SMRT retention time set (Domingo-Almenara et al. 2019).

Test: gradient 5% acetonitrile 3 min, to 50% in 2 min, to 85% in 15 min, held 3 min, 100 µL/min
Conditions: column: Zorbax Extend-C18 2.1 x 50 mm; eluents: water / acetonitrile, 0.1% formic acid
How it was run: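 Each retention time is based on an adduct peak selected computationally and verified by manual inspection. Measurements used HPLC–quadrupole time-of-flight mass spectrometry in positive and negative ionization mode on mixtures of ~100 pure standards. Chromatography ran on a Zorbax Extend-C18 column (2.1 × 50 mm, 1.8 μm) at 100 μL/min with water and acetonitrile, each containing 0.1% formic acid, and dead and dwell volumes of 40 μL and 900 μL.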

| RP-LC retention time [s] | SMILES |
| --- | --- |
| 804 | Cc1ccc(NC(=O)C2CCN(C(=O)C3Sc4ccccc4NC3=O)CC2)cc1F (stereo unspecified) |
| 860 | CC(C)c1nc2c(NC(=O)c3ccccc3)cccn2n1 |
| 710 | CCc1ccc(CNC(=O)c2cn3c(n2)COCC3)cc1 |
| 575 | CN(C)C(CNC(=O)Cn1c(=O)oc2ccccc21)c1cn(C)c2ccccc12 (stereo unspecified) |
| 707 | CSc1cccc(NC(=O)Cn2nc3n(c2=O)CCCCC3)c1 |
| 934 | COc1cccc(-n2ccnc(NC(=O)Nc3cccc(F)c3)c2=O)c1 |
| 974 | CCOC(=O)c1ccccc1NC(=O)CSc1ccc(-c2ccc3c(c2)OCO3)nn1 |
| 571 | CCCCC(=O)Nc1ccc2nc(N3CCN(CC)CC3)cc(C(=O)O)c2c1 |
| 624 | COCCNC(=O)c1ccc(-c2ccc(N3CCSCC3)nc2)cc1 |
| 1120 | CCC1CCC(c2nnc(-c3ccc([N+](=O)[O-])cc3)o2)CC1 (stereo unspecified) |
| 568 | Cc1sc2cc(C(=O)N3CCN(c4ccccn4)CC3)[nH]c2c1CN1CCOCC1 |
| 784 | CCOc1ccc(CNC(=O)C2CCCN(c3ncnc4c3oc3ccccc34)C2)cc1 (stereo unspecified) |
| 670 | CCOc1ccc(NC(=O)Cn2c(CC)nc3cc4c(cc32)OCCO4)cc1 |
| 681 | CCC1CCCCN1C(=O)c1cnc2nc(C)ccc2c1Nc1ccc(C(=O)OC)cc1 (stereo unspecified) |
| 710 | CC(C)C(=O)Nc1ccc(-n2cnc(C(=O)N3CCCCCC3)c2)nc1 |
| 771 | CCC(C)NC(=O)c1nc(CCS(=O)(=O)c2ccccc2)no1 (stereo unspecified) |
| 576 | CCCCC(=O)Nc1ccc(N(C)CCc2c(C)nn(C)c2C)c(C(=O)O)c1 |
| 686 | O=C(Cc1ccc(Cl)cc1)N1CC(Cc2nncn2CC2CC2)C1 |
| 866 | O=C(CN1C(=O)CSc2cccn2-c2ccccc21)NCc1ccc(F)cc1 |
| 843 | Cc1ccc(Nc2c(-c3cccc(O)c3)nc3cnccn23)c(Br)c1 |
| 606 | CCn1ccc(C(=O)N2CCC(c3nc4cccnc4n3CCOC)C2)n1 (stereo unspecified) |
| 561 | CC(C)C(=O)NCCN1CCN(c2ccc(F)cc2)CC1 |

| RP-LC retention time [s] | SMILES |
| --- | --- |
| 815 | O=C(Cn1nc2c(Oc3cccc(F)c3)nccn2c1=O)Nc1ccccc1F |
| 1140 | CCN1C(=O)COc2ccc(-c3noc(C4(c5ccc(OC)cc5)CC4)n3)cc21 |
| 835 | CNC(=O)c1cc(C)n(C)n1 |
| 976 | COc1ccc(-c2ncc3c(n2)CCN(S(=O)(=O)Cc2ccccc2)C3)cc1 |
| 880 | Cc1ccc2[nH]cc(CCNC(=O)CCc3ccccc3)c2c1 |
| 770 | Cc1cc(-c2nnc(-c3ccccc3)o2)c(C)n1CC(=O)NCC1CCCO1 (stereo unspecified) |
| 748 | CSc1ccc(-c2nc3cnccn3c2Nc2cccc(C(=O)NCC3CCCO3)c2)cc1 (stereo unspecified) |
| 1000 | CC(C)c1cc(C(=O)Nc2cccc(C(F)(F)F)c2)nn1C1CCS(=O)(=O)C1 (stereo unspecified) |
| 786 | Oc1cccc(-c2nc3cnc(Br)cn3c2Nc2ccc3c(c2)OCO3)c1 |
| 878 | Cn1c(=O)n(C)c2cc(S(=O)(=O)c3ccccc3)c(NC(=O)c3ccccc3F)cc21 |
| 958 | Cc1ccc(CNC(=O)c2cc3sccc3n2C)cc1 |
| 1070 | O=C(Cn1cnc2c(sc3nc(-c4ccccc4)ccc32)c1=O)NCc1ccc(Cl)cc1 |
| 802 | Cc1ccc2nc(SCc3noc(CCC(=O)Nc4nc(-c5ccccc5)cs4)n3)[nH]c2c1 |
| 916 | O=C1CC(c2noc(-c3ccccc3F)n2)CN1c1ccc(F)cc1 (stereo unspecified) |
| 937 | CC(NC(=O)CN1c2ccc(F)cc2-c2ccccc2S1(=O)=O)c1ccccc1 (stereo unspecified) |
| 629 | Cn1cnnc1-c1nn(C)c2c1CN(C(=O)CCc1cc(Cl)no1)CC2 |
| 749 | CCOC(=O)c1nc(NCc2ccc(OC)cc2)c2ccccc2n1 |
| 654 | O=C(CSc1nnc(-c2cccnc2)o1)Nc1c(Cl)cccc1Cl |
| 632 | CC1CCC(NC(=O)C2CCCN(C(=O)c3cc(-c4ccncc4)n[nH]3)C2)CC1 (stereo unspecified) |
| 521 | O=C(NCCn1nc(-n2ccnc2)ccc1=O)c1cccc(-n2cnnn2)c1 |
| 973 | Cc1ccc(C)c(CNC(=O)C2(c3ccc(NS(C)(=O)=O)cc3)CCCCC2)c1 |
| 871 | Cc1nc(C2CCOCC2)n(C2CCN(S(=O)(=O)c3ccc(C(C)(C)C)cc3)C2)n1 (stereo unspecified) |

| RP-LC retention time [s] | SMILES |
| --- | --- |
| 618 | Cc1noc(CNC(=O)C2CCN(C(=O)c3ccc(S(=O)(=O)N(C)C)cc3)CC2)n1 |
| 758 | Cn1cnc2c(C(=O)N3CCCC3)nn(-c3ccc(Cl)cc3)c2c1=O |
| 854 | Cc1cc(C)c(S(=O)(=O)N2CCC3(CC2)NCCN=C3NCc2ccccc2C)c(C)c1 |
| 649 | CN(CC1(C)CCOCC1)C(=O)NCc1ccco1 |
| 1150 | Brc1cccc(-c2noc(-c3nc(-c4ccncc4)no3)n2)c1 |
| 886 | Cc1cc(-c2nnc(-c3ccco3)o2)c(C)n1CC(=O)NCc1cccc(Cl)c1 |
| 616 | CCc1nc2cccnc2n1CCN1CCN(C(=O)Nc2ccc(C)cc2Cl)CC1 |
| 902 | Cc1ccc(-c2cc(C(=O)NCc3ccc4c(c3)OCO4)ccn2)s1 |
| 846 | Cc1ccccc1NC(=O)Cn1nc2c(Oc3cccc(F)c3)nccn2c1=O |
| 760 | COCCn1cc(CCNC(=O)Nc2ccc(Cl)cc2)c2cccnc21 |
| 700 | O=c1c2nnc3ccnn3c2ccn1CCc1c[nH]c2ccccc12 |
| 777 | COC(=O)c1ccc2c(=O)n(Cc3ccc(F)cc3)c(N3CCC(C(N)=O)CC3)nc2c1 |
| 578 | CN(C)S(=O)(=O)c1ccc(-c2nc3ccccc3s2)cc1 |
| 931 | Cc1ccc(NC(=O)CSc2nnc3c4cc(-c5ccc(F)cc5)nn4ccn23)c(C)c1 |
| 1070 | Fc1cccc(-c2nnc(Cc3nc(-c4cccc(Cl)c4)no3)o2)c1 |
| 612 | CCN1CCN(C(=O)CC2CCN(C(=O)c3[nH]c(C)c(C(=O)OC(C)C)c3C)CC2)CC1 |
| 954 | Cc1ccc(-c2cn(CC(=O)Nc3cc(C)ccc3C)c(=O)o2)cc1 |
| 994 | O=C(CSC1CCCC1)N1CCCC(c2nnc(-c3ccccc3F)s2)C1 (stereo unspecified) |
| 877 | COc1cccc2c1OC1(C)CC2C(S(=O)(=O)c2ccc(Cl)cc2)C(=O)N1 (stereo unspecified) |
| 1220 | O=C(Nc1nc(-c2ccccc2)cs1)c1ccc(COc2c(F)c(F)c(F)c(F)c2F)o1 |
| 567 | O=C(NC1CCN(c2nnc3ccc(Cl)cn23)CC1)c1cccnc1 |
| 822 | Cc1ccc(NC(=O)C2CCc3nc(N4CCCCC4)ncc3C2)cc1 (stereo unspecified) |

| RP-LC retention time [s] | SMILES |
| --- | --- |
| 596 | Cc1nc(-c2cccc(C(=O)NC(C)C)c2)no1 |
| 992 | COc1ccc(CCNC(=O)C2CCN(S(=O)(=O)N(CC(C)C)CC(C)C)CC2)cc1OC |
| 574 | Cc1cc(N2CCCCC2)n2nc(CN3CCN(C(C)C)CC3)nc2n1 |
| 580 | CCCNC(=O)N1CCCCCC1CN1CCOCC1 (stereo unspecified) |
| 743 | CCC(=O)NCCc1c[nH]c2ccc(Cl)cc12 |
| 698 | CC1(CNC(=O)c2ccccc2Br)CCOCC1 |
| 1110 | CC(C)(C)c1cc(C(=O)NCc2cccs2)nc2ccnn12 |
| 1100 | COc1ccc(CCC(=O)Nc2nc(-c3ccc(F)cc3F)cs2)cc1 |
| 680 | COCC(=O)N1CCCc2ccc(NC(=O)c3cc(C)on3)cc21 |
| 585 | Cn1cnc2ccc(-c3noc(CNC(=O)c4cccs4)n3)cc21 |
| 693 | COCCN1C(=O)[C@H]2CN(Cc3ccc(F)cc3Cl)C[C@H]2C1=O |
| 746 | Cn1c(C(=O)NCCCN2CCCCC2)cc2c(-c3cccs3)nn(-c3ccccc3)c21 |
| 632 | Cc1nnc(NC(=O)CSCc2ccco2)s1 |
| 627 | O=C(NCc1nc2ccccc2n1CC(=O)N1CCCCCC1)c1ccco1 |
| 800 | CCC(=O)N(C1CCOCC1)C1CCN(S(=O)(=O)c2ccc(OC)cc2)CC1 |
| 602 | CC(NC(=O)COc1ccccc1)C(=O)N1CCN(c2ccccn2)CC1 (stereo unspecified) |
| 664 | CS(=O)(=O)N(C1CCOCC1)C1CN(C(=O)Nc2ccc(F)cc2F)C1 |
| 845 | O=C(Cc1cccs1)Nc1nnc(-c2ccccc2Cl)s1 |
| 752 | Cc1ccnc(NC(c2ccccc2)c2ccc3cccnc3c2O)c1 (stereo unspecified) |
| 738 | CC(C(=O)N1CCN(c2ccccn2)CC1)n1ccc2cc(S(=O)(=O)N3CCCCCC3)ccc21 (stereo unspecified) |
| 592 | COC(=O)c1c(C)[nH]c(C(=O)N2CCCC(C(=O)NCCCN3CCCCCC3)C2)c1C (stereo unspecified) |
| 824 | COc1ccc(CCNC(=O)c2nnc(-c3ccc(S(=O)(=O)N4CCCC4)cc3)o2)cc1OC |

| SMILES | RP-LC retention time [s] |
| --- | --- |
| COc1ccc2c(c1)C1(CCN(C(=O)c3ccc(F)cc3)C1)C(=O)N2 (stereo unspecified) | 714 |
| CCC(=O)N1CCc2cc(N3CC(C(=O)N4CCC5(CC4)OCCO5)CC3=O)ccc21 (stereo unspecified) | 654 |
| C[C@@H]1OC(=O)[C@H]2C[C@H]3CCCC[C@@H]3[C@@H](/C=C/[C@H]3CCC[C@H](C)N3C)[C@@H]12 | 745 |
